Measured values from patent US6387936B1 (Aventis Pharma S.A., priority 1998, dated 2002).
Several values for one entry are separate records, joined by “and”; a condition that tells them apart may be missing. Equal values may be shown once.

Key:
[1] = test system: parkinsonian marmosets (MPTP); assay: Locomotory activity of MPTP-treated parkinsonian marmosets (image analyser, small/medium/large movements); type: in vivo, Callithrix jacchus; set-up: Locomotory activity, small movements / Locomotory activity, small movements, Average ± S.E.M. / Locomotory activity, medium movements / Locomotory activity, large movements / Time passed in moving, small movements: unit not given here; settings: for Time passed in moving, large movements, Average ± S.E.M. / Time passed in moving, small movements, Average ± S.E.M. / Time passed in moving, medium movements, Average ± S.E.M. / Time passed in moving, small movements / Time passed in moving, large movements / Time passed in moving, medium movements: 30 min after 1st daily L-DOPA
Method: On day 32, the animals are divided into 2 groups. […] The locomotory activity is determined by placing the animals in test cages (50 cm×83 cm×77 cm) which are equipped with 3 […] onto which the animals can jump as well as a Plexiglas door in front of which is placed a camera. […] The image is digitalized with a 800×600 definition with 256 levels of grey and the changes in pixels from one image to another are counted. This allows the locomotory activity to be classified into small, medium or large movements. […] The locomotory activity of the animals is measured during the exploration phase, that is to say immediately after they are placed in the test cage.

[2] = test system: parkinsonian marmosets (MPTP); assay: Dyskinesic score in MPTP-treated marmosets under chronic L-DOPA; type: in vivo, Callithrix jacchus; set-up: Total dyskinesic score, individual values / Total dyskinesic score, Average ± S.E.M.: scale not given here; settings: for Total dyskinesic score, Average ± S.E.M. / Total dyskinesic score, individual values: L-DOPA alone (Group 1 controls, sucrose); for Total dyskinesic score, individual values: marmosets 1-3
Method: The marmosets have free access to water and have available each day 35 g of food rich in carbohydrates, proteins and vitamins mixed with water, milk and sugar and also fresh fruit.
All the animals receive 3 injections of 2 mg/kg of MPTP by the subcutaneous route, on days 1, 7 and 32. On day 32, the animals are divided into 2 groups.
The dyskinesic score is determined according to a number of parameters and each with a different degree of intensity: […]

[3] = riluzole 2 × 10 mg/kg + L-DOPA (Group 2), 10 days after L-DOPA
[4] = riluzole 2 × 10 mg/kg + L-DOPA (Group 2), 10 days after L-DOPA, marmosets 4-6, interval 21-30 min, 10 mg/kg, in s (unit assumed)
[5] = riluzole 2 × 10 mg/kg + L-DOPA (Group 2), 10 days after L-DOPA, marmosets 4-6, interval 31-40 min, 10 mg/kg, in s (unit assumed)
[6] = riluzole 2 × 10 mg/kg + L-DOPA (Group 2), 10 days after L-DOPA, marmosets 4-6, interval 51-60 min, 10 mg/kg, in s (unit assumed)
[7] = riluzole 2 × 10 mg/kg + L-DOPA (Group 2), 20 days after L-DOPA, in s (unit assumed)
[8] = riluzole 2 × 10 mg/kg + L-DOPA (Group 2), 20 days after L-DOPA, marmosets 4-6, interval 1-10 min, 10 mg/kg, in s (unit assumed)
[9] = day 57 after 1st MPTP, 30 min after 1st daily L-DOPA
[10] = day 57 after 1st MPTP, 2 h after 1st daily L-DOPA
[11] = day 60 after 1st MPTP, 30 min after 1st daily L-DOPA
[12] = day 60 after 1st MPTP, 2 h after 1st daily L-DOPA
[13] = day 67 after 1st MPTP, 30 min after 1st daily L-DOPA
[14] = day 67 after 1st MPTP, 2 h after 1st daily L-DOPA
[15] = day 104 after 1st MPTP, 30 min after 1st daily L-DOPA
[16] = day 104 after 1st MPTP, 2 h after 1st daily L-DOPA
[17] = 30 min after the 1st administration of L-DOPA (25 mg/kg p.o.), Group 1, all intervals of 1 h
[18] = 30 min after the 1st administration of L-DOPA (25 mg/kg p.o.), Group 1 marmosets 1-3, interval 11-20 min
[19] = 30 min after the 1st administration of L-DOPA (25 mg/kg p.o.), Group 1 marmosets 1-3, interval 31-40 min
[20] = 30 min after the 1st administration of L-DOPA (25 mg/kg p.o.), Group 1 marmosets 1-3, interval 41-50 min
[21] = 30 min after the 1st administration of L-DOPA (25 mg/kg p.o.), Group 1 marmosets 1-3, interval 51-60 min
[22] = L-DOPA alone (Group 1, sucrose), 10 days after L-DOPA, in s (unit assumed)
[23] = L-DOPA alone (Group 1, sucrose), 20 days after L-DOPA, in s (unit assumed)

For `Nc1nc2ccc(OC(F)(F)F)cc2s1` [riluzole, 2-amino-6-trifluoromethoxybenzo-thiazole], which “Effect on locomotory activity (in words)” value ([1]; riluzole 10 mg/kg oral, twice per day for 72 days, after 10 and 20 days of treatment with L-DOPA) is on record?
The value was “capable of improving the locomotory activity”.

What about the “Time passed in moving, large movements, Average ± S.E.M.” value [1, 3] of the same compound?
Its value is 410 ± 25^+++.

What about the “Time passed in moving, small movements, Average ± S.E.M.” value [1, 3] of the same compound?
The value was 57 ± 16^+++.

What about the “Time passed in moving, medium movements, Average ± S.E.M.” value ([1]; riluzole 2 × 10 mg/kg + L-DOPA (Group 2), 10 days after L-DOPA, in s (unit assumed)) of the same compound?
The value was 134 ± 13.

And the “Time passed in moving, small movements” value ([1]; riluzole 2 × 10 mg/kg + L-DOPA (Group 2), 10 days after L-DOPA, marmosets 4-6, interval 1-10 min)?
The value was 5.

What about the “Time passed in moving, large movements” value ([1]; riluzole 2 × 10 mg/kg + L-DOPA (Group 2), 10 days after L-DOPA, marmosets 4-6, interval 1-10 min, 10 mg/kg, in s (unit assumed)) of the same compound?
The value was 560 and 495 and 520.

And the “Time passed in moving, large movements” value ([1]; riluzole 2 × 10 mg/kg + L-DOPA (Group 2), 10 days after L-DOPA, marmosets 4-6, interval 11-20 min, 10 mg/kg, in s (unit assumed))?
Its value is 565 and 455 and 370.

And the “Time passed in moving, large movements” value [1, 4]?
Its value is 540 and 355 and 435.

And the “Time passed in moving, medium movements” value [1, 4]?
The value was 60 and 120 and 115.

What about the “Time passed in moving, large movements” value [1, 5] of the same compound?
Its value is 460 and 240 and 385.

And the “Time passed in moving, medium movements” value [1, 5]?
The value was 140 and 215 and 190.

And the “Time passed in moving, medium movements” value ([1]; riluzole 2 × 10 mg/kg + L-DOPA (Group 2), 10 days after L-DOPA, marmosets 4-6, interval 41-50 min, 10 mg/kg, in s (unit assumed))?
Its value is 155 and 205 and 175.

And the “Time passed in moving, large movements” value [1, 6]?
Its value is 430 and 265 and 310.

And the “Time passed in moving, medium movements” value [1, 6]?
Its value is 135 and 125 and 190.

What about the “Time passed in moving, medium movements, Average ± S.E.M.” value ([1]; riluzole 2 × 10 mg/kg + L-DOPA (Group 2), 20 days after L-DOPA) of the same compound?
Its value is 148 ± 13^+.

What about the “Time passed in moving, large movements, Average ± S.E.M.” value [1, 7] of the same compound?
The value was 365 ± 37.

And the “Time passed in moving, small movements, Average ± S.E.M.” value [1, 7]?
The value was 67 ± 30.

What about the “Time passed in moving, large movements” value [1, 8] of the same compound?
Its value is 445 and 335 and 490.

What about the “Time passed in moving, medium movements” value [1, 8] of the same compound?
The value was 155 and 140 and 80.

What about the “Time passed in moving, medium movements” value ([1]; riluzole 2 × 10 mg/kg + L-DOPA (Group 2), 20 days after L-DOPA, marmosets 4-6, interval 51-60 min, 10 mg/kg, in s (unit assumed)) of the same compound?
The value was 90 and 180 and 105.

`N[C@@H](Cc1ccc(O)c(O)c1)C(=O)O` [L-DOPA, 3-(3,4-dihydroxyphenyl)-L-alanine] was tested. Which “Total dyskinesic score, Average ± S.E.M.” value [2, 9] did it give?
Its value is 6.7 ± 2.1.

What about the “Total dyskinesic score, individual values” [2, 9] of the same compound?
The value was 4 and 11 and 5.

What about the “Total dyskinesic score, Average ± S.E.M.” value [2, 10] of the same compound?
The value was 6.0 ± 2.1.

What about the “Total dyskinesic score, individual values” [2, 10] of the same compound?
Its value is 3 and 10 and 5.

What about the “Total dyskinesic score, Average ± S.E.M.” value [2, 11] of the same compound?
The value was 9.0 ± 2.5.

What about the “Total dyskinesic score, individual values” [2, 11] of the same compound?
Its value is 4 and 11 and 12.

And the “Total dyskinesic score, Average ± S.E.M.” value [2, 12]?
The value was 8.3 ± 2.32.

What about the “Total dyskinesic score, individual values” [2, 12] of the same compound?
Its value is 4 and 9 and 12.

What about the “Total dyskinesic score, Average ± S.E.M.” value [2, 13] of the same compound?
Its value is 10 ± 3.0.

And the “Total dyskinesic score, individual values” [2, 13]?
The value was 4 and 14 and 12.

What about the “Total dyskinesic score, Average ± S.E.M.” value [2, 14] of the same compound?
The value was 10 ± 3.0.

What about the “Total dyskinesic score, individual values” [2, 14] of the same compound?
Its value is 4 and 13 (2×).

And the “Total dyskinesic score, Average ± S.E.M.” value [2, 15]?
Its value is 11 ± 3.8.

And the “Total dyskinesic score, individual values” [2, 15]?
The value was 4 and 17 and 2.

What about the “Total dyskinesic score, Average ± S.E.M.” value [2, 16] of the same compound?
Its value is 11 ± 3.0.

What about the “Total dyskinesic score, individual values” [2, 16] of the same compound?
The value was 5 and 17 and 12.

What about the “Dyskinesias (in words)” value ([2]; repeated L-DOPA 25 mg/kg oral, 3 times per day, days 57, 60, 67 and 104, maximum effect on day 104) of the same compound?
Its value is “produce dyskinesias”.

What about the “Locomotory activity, large movements, Average ± S.E.M.” value [1, 17] of the same compound?
Its value is 334 + 23.

What about the “Locomotory activity, medium movements, Average ± S.E.M.” value [1, 17] of the same compound?
The value was 226 ± 13.

And the “Locomotory activity, small movements, Average ± S.E.M.” value [1, 17]?
Its value is 40 ± 16.

What about the “Locomotory activity, medium movements” value ([1]; 30 min after the 1st administration of L-DOPA (25 mg/kg p.o.), Group 1 marmosets 1-3, interval 1-10 min) of the same compound?
The value was 250 and 235 and 270.

What about the “Locomotory activity, large movements” value [1, 18] of the same compound?
Its value is 350 and 385 and 275.

What about the “Locomotory activity, medium movements” value [1, 18] of the same compound?
The value was 240 and 190 and 290.

And the “Locomotory activity, large movements” value ([1]; 30 min after the 1st administration of L-DOPA (25 mg/kg p.o.), Group 1 marmosets 1-3, interval 21-30 min)?
Its value is 490 and 370 and 375.

And the “Locomotory activity, large movements” value [1, 19]?
The value was 290 and 230 and 335.

And the “Locomotory activity, medium movements” value [1, 19]?
Its value is 255 and 355 and 205.

What about the “Locomotory activity, large movements” value [1, 20] of the same compound?
The value was 425 and 295 and 420.

And the “Locomotory activity, medium movements” value [1, 20]?
The value was 165 and 260.

And the “Locomotory activity, large movements” value [1, 21]?
The value was 350 and 330 and 365.

What about the “Locomotory activity, medium movements” value [1, 21] of the same compound?
Its value is 215 and 240 and 200.

What about the “Locomotory activity, small movements” value [1, 21] of the same compound?
Its value is 35 and 30.

And the “Effect on locomotory activity (in words)” value ([1]; L-DOPA after repeated treatment of 10 days and of 20 days)?
The value was “does not have or has little beneficial effect on the locomotory activity”.

And the “Time passed in moving, large movements, Average ± S.E.M.” value [1, 22]?
The value was 171 ± 48.

What about the “Time passed in moving, medium movements, Average ± S.E.M.” value [1, 22] of the same compound?
Its value is 160 ± 23.

And the “Time passed in moving, small movements, Average ± S.E.M.” value [1, 22]?
The value was 269 ± 47.

What about the “Time passed in moving, small movements” value ([1]; L-DOPA alone (Group 1, sucrose), 10 days after L-DOPA, marmosets 1-3, interval 51-60 min) of the same compound?
Its value is 205 and 225 and 240.

And the “Time passed in moving, medium movements” value ([1]; L-DOPA alone (Group 1, sucrose), 10 days after L-DOPA, marmosets 1-3, interval 51-60 min, in s (unit assumed))?
The value was 165 and 305 and 235.

And the “Time passed in moving, large movements, Average ± S.E.M.” value [1, 23]?
The value was 283 ± 50.

What about the “Time passed in moving, medium movements, Average ± S.E.M.” value [1, 23] of the same compound?
The value was 235 ± 37.

What about the “Time passed in moving, small movements, Average ± S.E.M.” value [1, 23] of the same compound?
The value was 83 ± 19.

And the “Effect on locomotory activity (in words)” value ([1]; acute administration of L-DOPA 25 mg/kg, 15 days after the 3rd injection of MPTP)?
The value was “increases the locomotory activity by decreasing the small movements and increasing the large movements”.
